Results: patent US20250352595A1, “PHARMACEUTICAL, FOOD, OR FEED COMPOSITION FOR PREVENTING OR TREATING MUSCLE LOSS CONTAINING RHODODENDRON MUCRONULATUM EXTRACT” (DR. OREGONIN INC., priority 2022, published 2025)

Test system: 3T3-L1 cells
Assay: Adipocyte differentiation (fat accumulation) measurement by Oil Red-O staining
Type: cell-based, mouse
Conditions: for adipocyte differentiation inhibitory activity depending on the treatment concentration: 3T3-L1 cells, Oil Red O staining; for inhibition at 20 µg/mL: Mus musculus, 20 μg/ml, the highest concentration in the experiment, 3T3-L1 differentiation, Oil Red O, read-out: effect of inhibiting adipogenesis
Procedure: 3T3-L1 cells, a mouse-derived preadipocyte, were purchased from the Korean Cell Line Bank and used. 3T3-L1 cells were cultured in a 37° C.-wet CO2 incubator (5% CO2/95% air) using a cell culture medium (complete DMEM culture medium) in which 10% bovine calf serum (BCF), 100 units/mL penicillin, and 100 μg/mL streptomycin were added to a DMEM medium (Welgene). When the cells were 80% full of the culture dish, the cell monolayer was washed with phosphate buffer saline (PBS, pH 7.4), and then the cells were detached by adding trypsin-2.65 mM EDTA and subcultured, and the medium was exchanged every 2 days.
3T3-L1 cells were seeded onto 24-well plate at a concentration of 1×10^5 cells/well. After the cells reached the confluence state, the cell culture medium was sequentially exchanged with three kinds of differentiation-inducing cultures (DM), and the cells were cultured to induce differentiation into adipocytes. That is, the cell culture medium was exchanged with a differentiation-inducing culture medium in which DMI (1 μM dexamethasone, 0.5 mM 3-isobutyl-1-methylxanthine (IBMX), […]) was added to a DMEM medium containing 10% FBS to stimulate differentiation for 2 days. After 2 days, the cells were exchanged for a new differentiation-inducing culture medium in which 5 μg/mL insulin was added to DMEM medium containing 10% FBS to stimulate differentiation for another 2 days. After stimulating differentiation for a total of 4 days, cells were maintained in DMEM medium containing 10% FBS for 2 days to induce differentiation into adipocytes.
In order to investigate the effect of the test substance on adipocyte differentiation, the test substance was added to the differentiation-inducing culture medium and treated on the cells.
After treatment with the test substance while inducing differentiation of 3T3-L1 cells, the cells were rinsed with DPBS (Welgene), and then the cells were fixed at room temperature for 1 hour by adding 4% paraformaldehyde (PFA, Biosesang). After the cells were fixed, the cells were treated with oil red O (Sigma-Aldrich) solution and stained at room temperature for 1 to 2 hours. After observing the staining degree of adipocytes visually, the cells were rinsed with distilled water and observed for adipocytes through a microscope.

SMILES | adipocyte differentiation inhibitory activity depending on the treatment concentration | inhibition at 20 µg/mL [%]
O=C1c2c(O)cc(O)cc2O[C@H](c2ccc(O)c(O)c2)[C@H]1OC1OC[C@@H](O)[C@@H](O)[C@@H]1O (stereo partly drawn) [Taxifolin-3-O-arabinopyranoside, taxifolin-3-O-α-L-arabinopyranoside] | increases in a concentration-dependent manner | ≥ 40
O=C1c2c(O)cc(O)cc2O[C@H](c2ccc(O)c(O)c2)[C@H]1O [Taxifolin-aglycone, taxifolin] | increases in a concentration-dependent manner | ≥ 40
